Results reported in patent publication US9914711B2 (priority 2013, dated 2018).

What was measured:
C. violaceum CV026 [1] = assay: Preliminary screening of bacterial quorum sensing agonistic / inhibitory activity on LB plate (purple stain / white circle); format: cell-based; details: for Regulatory activity (bacterial quorum sensing regulatory activity): 1 μl of 0.065M compound spotted on plate, inhibitory screen with inducer C6-HSL, 30° C., 16-18 h; for Effect on bacterial quorum sensing (summary in words): summary of the activity evaluation experiments
Protocol: 1.1 Preparation work: different compounds to be tested (Compounds 1-40 prepared in Example 1-40) were weighted and then were dissolved in 200 μl DMSO (dimethyl sulfoxide) to prepare a solution at a concentration of 0.065M. 5.0 mg inducer, N-hexanoyl homoserine lactone (C6-HSL, purchased from Sigma Company), was weighted and was dissolved in 200 μl DMSO (at a concentration of 0.125M), and the compounds and the inducer were stored at 4 for further use. C. violaceum CV026 (donated by Professor McLean J C from Texas State University) in LB culture medium (LB culture medium consisting of 1% (percentage by mass) tryptone, 0.5% (percentage by mass) yeast extract, 1% (percentage by mass) NaCl and water) was cultured under shaking in a shaker at 30, 200 rpm to get the culture medium for further use.
1.2 Method for preliminary screening of compounds having agonistic activity: 400 μl C. violaceum CV026 (at a bacterial concentration of 1×10^8/ml) was added to 5 ml melted semi-solid LB culture medium, and was mixed well; the mixed culture medium was poured into a solid LB plate; when the mixed culture medium was solidified on the plate, lattice was made thereon; 1 μl of the dissolved compounds to be tested (Compounds 1-40 in Examples 1-40, at a concentration of 0.065M) was spotted on the plate; when the compounds on the plate was dried in air, the plate was put in a 30° C. oven upside down and was cultured for a period of 16-18 h. If the compound to be tested has an agonistic effect on C. violaceum CV026 on the LB plate, purple stain will be induced on the LB plate. The agonistic activity of a compound is determined depending on whether purple stain is induced for C. violaceum CV026 on LB plate as well as the purple depth.
1.3 Method for preliminary screening of compounds having inhibitory activity: the inducer C6-HSL was diluted gradiently to 1000 times by means of 2-fold dilution; 15 μl diluted inducer and 400 μl C. violaceum CV026 in exponential phase (at a bacterial concentration of 1×10^8/ml) were mixed well and then were added to a 5 ml melted semi-solid LB culture medium; the mixture of inducer, C. violaceum, and semi-solid LB was poured onto a solid LB plate; when the mixture was solidified on the plate, lattice was made thereon: 1 μl of the dissolved compounds to be tested (Compounds 1-40 in Examples 1-40, at a concentration of 0.065M) was spotted on the plate; when the compounds on the plate were dried in air, the plate was put in a 30° C. oven upside down and was cultured for a period of 16-18 h. If the compound to be tested has an inhibitory effect on C. violaceum CV026 on the LB plate, white circle will appear on the LB plate. The inhibitory activity of a compound is preliminary determined depending on the size of the white circle appeared after C. violaceum CV026 was inhibited on LB plate.
It is found after preliminary screening that 22 compounds according to the invention have bacterial quorum sensing regulatory activity, and the screening result was shown in Table 1.

C. violaceum CV026 [2] = assay: Measurement of IC50 of compounds having an inhibitory effect on C. violaceum quorum sensing (purple pigment absorbance at 585 nm); format: cell-based; details: Chromobacterium violaceum, CV026, read-out: IC50 of compounds having bacterial quorum sensing inhibitory activity
Protocol: 2. Measurement of IC50 of Compounds Having an Inhibitory Effect on C. violaceum Quorum Sensing
2.1 The wells of a 12-well plate were marked as initial concentration, 2, 4, 8, 16, 32, 64, 128, 256, DMSO group, and a blank control group from left to right and from up to bottom, respectively.
2.2 The monoclonal C. violaceum CV026 grew on LB solid plate was cultured to exponational phase in a 5 ml fresh LB liquid culture medium, 50 μl was then taken for seeding in a 5 ml LB culture medium, and was cultured until the optical density OD value was about 1.0 at 585 nm; the culture was then mixed well with LB culture medium at a ratio of 1:9 by volume (with OD of about 0.15), and was added to a 12-well plate in an amount of 2 ml/well.
2.3 The compounds preliminarily screened to have quorum sensing inhibitory activity were dissolved respectively in DMSO (at a concentration of 0.065M), and then 10 μl was taken into 10 μl DMSO solution to achieve the purpose of 2-fold dilution, and so on. Each compound was gradiently diluted to a highest fold of 256 (gradient dilution of 2, 4, 8, 16, 32, 64, 128, 256 fold).
2.4 To each well, 15 μl 1000-fold diluted inducer C6-HSL (initial concentration of 0.125M) and 8 μl compound solution at each diluted gradient was added; to DMSO control group, 8 μl DMSO was added; to a blank control group, 8 μl LB culture medium was added. Finally, it was ensured that 2 ml culture in each of the 12-well plate was mixed well.
2.5 The 12-well plate was placed in a 30° C. shaker at 130 rpm and was cultured for 10-12 h.
2.6 After the culture was finished, 1 ml culture was taken from each well and was put in a 1.5 ml EP tube and then was centrifugated at 12000 rpm for 10 mins. […] 200 μl supernatant pigment was put in a 96-well culture plate, and was measured for absorbance value at 585 nm by a Microplate Reader, […] the absorbance value and the corresponding concentration were plotted to get the IC50 value.

Which “Regulatory activity (bacterial quorum sensing regulatory activity)” value (C. violaceum CV026 [1]) does the source give for `O=C(NN1CCOC1=O)c1ccc([N+](=O)[O-])cc1` [Compound 7, 4-nitro-N-(2-oxo-oxazolidin-3-yl)benzamide] here?
Its value is “−”.

And the “Effect on bacterial quorum sensing (summary in words)” value (C. violaceum CV026 [1])?
Its value is “inhibitory effect on bacterial quorum sensing”.

And the IC50 (C. violaceum CV026 [2])?
The IC50 was 18.7 ± 2.59 µM.

And the melting point?
The melting point was 206 to 208 °C.

Which “Regulatory activity (bacterial quorum sensing regulatory activity)” value (C. violaceum CV026 [1]) does the source give for `CCc1ccc(C(=O)NN2CCOC2=O)cc1` [Compound 11, 4-ethyl-N-(2-oxo-oxazolidin-3-yl)benzamide] here?
The value was “−”.

What about the “Effect on bacterial quorum sensing (summary in words)” value (C. violaceum CV026 [1]) of the same compound?
The value was “inhibitory effect on bacterial quorum sensing”.

And the IC50 (C. violaceum CV026 [2])?
The IC50 was 13.9 ± 4.21 µM.

What about the melting point of the same compound?
Its melting point is 170 to 173 °C.

Which results are given for `O=C(NN1CCOC1=O)c1ccc(Br)cc1` [Compound 12, 4-bromo-N-(2-oxo-oxazolidin-3-yl)benzamide]?
Regulatory activity (bacterial quorum sensing regulatory activity) (C. violaceum CV026 [1]): ±; Effect on bacterial quorum sensing (summary in words) (C. violaceum CV026 [1]): both an agonizing effect and an inhibitory effect; IC50 (C. violaceum CV026 [2]): 7.85 ± 1.71 µM; melting point: 202 to 204 °C
